Key:
5α-reductase [1] = test: In vivo inhibition of 5α-reductase (antiandrogenic effect, ventral prostate weight in castrated, testosterone-implanted rats); details: rat, once daily for 7 consecutive days
Experimental: The standard test for the antiandrogenic effect in rats was used. Prepuberal 22-day-old male rats were castrated via scrotal incision under light ether anaesthesia. […] Control animals (testosterone controls) received the vehicle (0.5 ml/kg of 0.5% Methocel/0.4% Tween 80). One group of castrated rats was not implanted with testosterone (castrated controls).
The mean percentage of inhibition of the T-induced hypertrophic response of the prostate was calculated according to the following formula: […]

5α-reductase [2] = target: T1, 5α-reductase (Homo sapiens, UniProt P31213); test: In vitro assay of 5α-reductase inhibition (particulate fraction from homogenates of hyperplastic human prostates, [14C] testosterone); type: biochemical; details: human prostate particulate fraction, pH 5.5, 1 μM [14C] testosterone, 30 min, 37° C.
T1 construct: particulate fraction from homogenates of hyperplastic human prostates; from tissue; host or cells: hyperplastic human prostate, particulate fraction (140,000×g pellet)
T1 sequence (P31213 1-254): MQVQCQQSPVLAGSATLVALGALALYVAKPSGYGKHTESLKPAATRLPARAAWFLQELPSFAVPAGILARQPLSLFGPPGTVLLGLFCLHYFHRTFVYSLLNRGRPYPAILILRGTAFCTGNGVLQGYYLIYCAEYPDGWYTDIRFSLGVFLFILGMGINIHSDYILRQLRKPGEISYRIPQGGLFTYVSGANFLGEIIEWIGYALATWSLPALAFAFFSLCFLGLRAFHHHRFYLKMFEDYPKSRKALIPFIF
Experimental: Inhibition of 5α-reductase was evaluated using the particulate fraction from homogenates of hyperplastic human prostates as the enzyme source. The particulate fraction was prepared centrifuging prostate homogenate at 140,000×g. The resulting pellet, washed several times, was resuspended in buffer and stored at -80° C. in aliquots containing ≈10 mg protein/mi.
The assay for 5α-reductase was done in a final volume of 0.5 ml, in 40 mM TRIS-HCl buffer pH 5.5, containing 1 mM dithiothreitol, 5 mM NADPH, 1 μM [^14 C] testosterone, an aliquot of the enzyme preparation and various of the inhibitors. After 30 min incubation at 37° C. the reaction was terminated by addition of 2 ml cold diethyl ether and the organic phase was separated, evaporated under N2 and resuspended in ethyl acetate. Testosterone metabolites in this extract were separated in TLC on silica gel F 254 plates (Merck), using chloroform, acetone and n-hexane (2:1:2) as developing solvent system.
Radioactivity on the plate was scanned and analyzed from quantitative plots printed by a TLC-analyzer (Berthold). The fractional 5α-reduction of testosterone was calculated by relating the ^14 C-radioactivity in the 5α-reduced metabolites (5α-dihydrotestosterone, 3α- and 3β-androstanediols) regions to the total radioactivity in the testosterone and 5α-reduced metabolites regions. […]

C[C@]12C=CC(=O)N[C@@H]1CC[C@@H]1[C@@H]2CC[C@]2(C)[C@@H](C(=O)NC(c3ccccc3)C(F)(F)F)CC[C@@H]12 (stereo partly drawn) [Compound 40, N-(2,2,2-trifluorophenylethyl) 3-oxo-4-aza-5α-androst-1-ene-17β-carboxamide]
% INHIBITION OF PROSTATE WEIGHT AT 3 mg/kg/day p.o. (5α-reductase [1]): 51%
IC50 (5α-reductase [2]): 0.021 µM

From patent US5407939A, “Fluorinated 17 β-substituted 4-aza-5 α-androstan-3-one derivatives” (Farmitalia Carlo Erba S.R.L., priority 1992, dated 1995)
